From patent publication US20070129430A1, “Agent for enhancing the production of collagen, their preparation and use” (priority 2003, published 2007)

Key:
NHDF cells = experiment: collagen assay: collagen production level of NHDF cells (Sircol Soluble Collagen Assay Kit); type: cell-based, human; conditions: for action of enhancing collagen production (FIG. 1): 5 days culture; for action of enhancing the collagen production by L-ascorbic acid: used in combination with L-ascorbic acid; for concentration dependence of the action of enhancing collagen production (FIG. 3) / order of the levels of action of enhancing collagen production next to 10-HDA (FIG. 3): 0.02 to 1.5 mM fatty acid with 50 μM AA2G
Description: NHDF cells, a human fibroblast, were seeded in a 96-well microplate (commercialized by Becton Dickinson, N.J., USA) with […] (designated as “DMEM medium” hereinafter, commercialized by Nissui Pharmaceutical Co., Ltd., Tokyo, Japan)(pH 7.1 to 7.4), supplemented with 10% (v/v) fetal calf serum and an adequate amount of penicillin, to give a cell density of 2.5×10^4 cells/well, and incubated at 37° C. for 24 hours under a 5% (v/v) CO2 condition. Thereafter, the supernatant was replaced with 200 μl of a DMEM medium supplemented with a sample having a prescribed concentration and/or 50 μM of L-ascorbic acid 2-glucoside (a product name of “AA2G” with a purity of 98.0% or over, produced by Hayashibara Biochemical Laboratories, Inc., Okayama, Japan), and further cultured for another five days. After completion of the culture, the collagen production level from cells in each well of the microplate was quantified by using “Sircol™ Soluble Collagen Assay Kit”, commercialized by Biocolar Ltd., Northern Ireland.
The action of enhancing the collagen production by 10-HDA was examined by the collagen assay shown in Experiment 1. In the collagen assay, 150 μg/ml of 10-HDA and/or a DMEM medium containing 50 μM of the same AA2G as used in Experiment 1 were used to examine the action of enhancing the collagen production by 10-HDA. As a control, there were provided two systems with 50 μM of AA2G or a DMEM medium free of AA2G, both of which were free of sample. The results are in FIG. 1.
The relationship between the concentration of 10-HDA and the action of enhancing collagen production was also studied. In the collagen assay, using a DMEM medium containing 0 to 300 μg/ml of 10-HDA as a sample and 50 μM of AA2G, the action of enhancing the collagen production by 10-HDA was examined. As a control, a DMEM medium containing 50 μM of AA2G free of sample was provided. The results are in FIG. 2.
The results are in FIG. 3.
To examine the influence of 10-HDA on the action of enhancing the collagen production by L-ascorbic acid or AA2G, the following experiment was conducted: In the collagen assay shown in Experiment 1, the levels of collagen production in cell culture by L-ascorbic acid or 10-HDA were compared and analyzed using a DMEM medium containing as a sample 0, 0.1, 0.2 or 0.5 mg/ml of 10-HDA and 50 μM of L-ascorbic acid or AA2G as L-ascorbic acids in terms of L-ascorbic acid, and another DMEM medium containing as a sample 0, 0.1, 0.2 or 0.5 mg/ml of 10-HDA but free of L-ascorbic acids. The results are in FIG. 4.

[1] = tested on: TGF-β production in human fibroblasts (NHDF cells); experiment: TGF-β production in human fibroblasts (TGF-β1 Emax ImmunoAssay System); type: cell-based; conditions: for TGF-β production level: 24 hours, culture supernatant; for enhancement of TGF-β production: concrete data not shown
Description: NHDF cells, a human fibroblast, commercialized by Kurabo Industries Ltd., Okayama, Japan, were seeded in 96-well microplates (commercialized by Becton Dickinson, N.J., USA) with a DMEM medium supplemented with 10% (v/v) fetal calf serum to give a cell density of 2.5×10^4 cells/well, and incubated for 24 hours under a 5% (v/v) CO2 condition. Thereafter, the supernatant in each microplate was removed, replaced with a fresh DMEM medium containing 0, 0.5 or 1.5 mM of 10-HDA and 0.2 μg/ml of AA2G, and cultured for 24 hours. After completion of the culture, the level of TGF-β in a supernatant of each well of the microplates was quantified by using “TGF-β1 E MAX IMMUNO ASSAY SYSTEM”, commercialized by Promega Corp., Wis., USA, and the data were statistically handled.

SMILES: O=C(O)C=CCCCCCCCO [10-HDA, 10-hydroxy-2-decenoic acid]
- action of enhancing collagen production (FIG. 4) (NHDF cells; 0, 0.1, 0.2 or 0.5 mg/ml 10-HDA in the presence of 50 μM AA2G (in terms of L-ascorbic acid)): action of enhancing collagen production in a concentration dependent manner
- action of enhancing collagen production (FIG. 4) (NHDF cells; 0, 0.1, 0.2 or 0.5 mg/ml 10-HDA in the presence of 50 μM L-ascorbic acid): action of enhancing collagen production in a concentration dependent manner
- concentration dependence of the action of enhancing collagen production (FIG. 2) (NHDF cells; 0 to 300 μg/ml 10-HDA with 50 μM AA2G): concentration-dependent action of enhancing collagen production
- action of enhancing collagen production (FIG. 1) (NHDF cells; 150 μg/ml 10-HDA in combination with 50 μM AA2G): distinct action of enhancing collagen production
- action of enhancing collagen production (FIG. 1) (NHDF cells; 150 μg/ml 10-HDA, absence of AA2G): did not show the action of enhancing collagen production
- action of enhancing collagen production (FIG. 3) (NHDF cells; 0.02, 0.06, 0.17, 0.5 or 1.5 mM fatty acid with 50 μM AA2G): significantly high action of enhancing collagen production
- action of enhancing collagen production with AA2G relative to that attained with L-ascorbic acid (FIG. 4) (NHDF cells; 10-HDA with 50 μM AA2G versus 50 μM L-ascorbic acid): about two-times higher
- action of inducing collagen production when used alone (NHDF cells; used alone, without L-ascorbic acid): did not show an action of inducing collagen production
- action of enhancing the collagen production by L-ascorbic acid (NHDF cells): exhibited an action of enhancing the collagen production by L-ascorbic acid
- action of enhancing the collagen production by L-ascorbic acid (NHDF cells; listed as Ingredient X): This result coincided with that of Ingredient X
- concentration giving maximum action of enhancing collagen production (FIG. 3) (NHDF cells; with 50 μM AA2G): ≥ 0.17 mM
- TGF-β production level ([1]; 0.5 mM 10-HDA with 0.2 μg/ml AA2G): 292 ± 68 pg/mL
- TGF-β production level ([1]; 1.5 mM 10-HDA with 0.2 μg/ml AA2G): 378 ± 74 pg/mL
- enhancement of TGF-β production in human fibroblasts ([1]; in the presence of AA2G, 0 to 1.5 mM): enhances the TGF-β production in human fibroblasts in a concentration dependent manner

SMILES: CCCCCCCC=CC(=O)O [2-decenoic acid]
- concentration dependence of the action of enhancing collagen production (FIG. 3) (NHDF cells): roughly in a concentration dependent manner
- order of the levels of action of enhancing collagen production next to 10-HDA (FIG. 3) (NHDF cells): in the order of 10-hydroxydecanoic acid, 2-decenoic acid, decanoic acid, and sebacic acid
- enhancement of TGF-β production [1]: also enhance TGF-β production

SMILES: O=C(O)CCCCCCCCCO [10-hydroxydecanoic acid]
- concentration dependence of the action of enhancing collagen production (FIG. 3) (NHDF cells): roughly in a concentration dependent manner
- order of the levels of action of enhancing collagen production next to 10-HDA (FIG. 3) (NHDF cells): in the order of 10-hydroxydecanoic acid, 2-decenoic acid, decanoic acid, and sebacic acid
- enhancement of TGF-β production [1]: also enhance TGF-β production

SMILES: O=C1O[C@H]([C@@H](O)CO)C(O)=C1O[C@H]1O[C@H](CO)[C@@H](O)[C@H](O)[C@H]1O [AA2G, L-ascorbic acid 2-glucoside]
- action of enhancing collagen production of L-ascorbic acid derivatives used in combination with fatty acids (NHDF cells; in combination with fatty acids such as 10-HDA, concrete data not shown): more remarkable action of enhancing collagen production

SMILES: O=C(O)CCCCCCCCC(=O)O [sebacic acid]
- enhancement of TGF-β production [1]: also enhance TGF-β production

SMILES: CCCCCCCCCC(=O)O [decanoic acid]
- enhancement of TGF-β production [1]: also enhance TGF-β production
